In experiment [1] the target is T1, Cyclin E/CDK2 (Homo sapiens, UniProt P24941).
T1 construct: made in house; host or cells: insect cells
In words: CDK2 FlashPlate Assay (inhibition of Rb phosphorylation by Cyclin E/CDK2). In kind it is biochemical. The note with it: for IC50: Table IA, recombinant human Cyclin E/CDK2, Rb substrate, 25 minutes room temperature.

The test system of experiment [2] is MDA-MB-435. In words: Cell-based antiproliferative (MTT) assay, MDA-MB-435 breast carcinoma line. The note with it: Homo sapiens, MDA-MB-435, 120 h; 5 days post addition of test compound; mostly one experiment, average where repeated; read-out: MDA-MB435 IC50. The method, then:
The estrogen receptor negative epithelial breast carcinoma line (MDA-MB-435) was purchased from American Type Cell Culture Collection (ATCC; Rockville, Md.) and was grown in the medium recommended by ATCC. For analysis of the effect of the test compounds on growth of these cells, the cells were plated at 2000 cells per well in a 96-well tissue culture plate, and were incubated overnight at 37° C. with 5% CO2. The next day, the test compounds were dissolved in 100% dimethyl sulfoxide (DMSO) to yield a 10 mM stock solution. Each compound was diluted with sterile medium to 1 mM in a sufficient quantity to yield a final concentration of 120 μM. The compounds were then serially diluted in medium with 1.2% DMSO. One-fourth final volume of the diluted compounds was transferred to 96 well plates. Test compounds were assayed in duplicate. DMSO was added to a row of "control cells" such that the final concentration of DMSO in each well was 0.3%. Wells to which no cells were added served as the "blank." Wells to which no inhibitor was added served as "no inhibitor control". The plates were returned to the incubator, and 5 days post addition of test compound, were analyzed as described below. […] MTT) was added to each well to yield a final concentration of 1 mg/mL. The plates were then incubated at 37° C. for 3 hours. The plates were centrifuged at 1000 rpm for 5 minutes prior to aspiration of the MTT-containing medium. The MTT-containing medium was then removed and 100 μL 100% ethanol was added to each well to dissolve the resulting formazan metabolite. To ensure complete dissolution, plates were shaken for 15 minutes at room temperature. Absorbencies were read in a microtiter plate reader (Molecular Dynamics) at a wavelength of 570 nm with a 650 nm reference. Percent inhibition was calculated by subtracting the absorbance of the blank (no cell) wells from all wells, then subtracting the division of the average absorbance of each test duplicate by the average of the controls from 1.00. Inhibitory concentrations (IC50) were determined from the linear regression of a plot of the logarithm of the concentration versus the percent inhibition.

This passage reports IC50 and inhibition results from patent US6130239A, “4-Alkenyl- and 4-alkynyloxindoles” (Hoffmann-La Roche Inc., priority 1999, dated 2000).

For orientation: IC50 means the point on the concentration scale where inhibition reaches its midpoint. The term inhibition denotes the change of the read-out against control, counted positive when it falls.

Counter-ions that a name gives are not always drawn.

In the case of `Cc1nc[nH]c1/C=C1\C(=O)Nc2ccc(F)c(C#CCN3CCOCC3)c21` [XX, (Z)-1,3-Dihydro-5-fluoro-3-[(4-methyl-1H-imidazol-5-yl)methylene]-4-[3-(4-morpholinyl)-1-propynyl]-2H-indol-2-one], the IC50 in experiment [1] was under 4 µM; in experiment [2] it was under 3.5 µM.

For `Cc1nc[nH]c1/C=C1\C(=O)Nc2ccc(F)c(C#CCC(C)O)c21` (racemic) [TT, rac-(Z)-1,3-Dihydro-5-fluoro-4-(4-hydroxy-1-pentynyl)-3-[(4-methyl-1H-imidazol-5-yl)methylene]-2H-indol-2-one, trifluoroacetate salt], the IC50 in experiment [1] is under 4 µM; in experiment [2], under 3.5 µM.

As for `Cc1nc[nH]c1/C=C1\C(=O)Nc2ccc(F)c(C#CCN(C)C)c21` [UU, (Z)-1,3-Dihydro-4-[3-(N,N-dimethylamino)-1-propynyl]-5-fluoro-3-[(4-methyl-1H-imidazol-5-yl)methylene]-2H-indol-2-one], the IC50 is under 4 µM in experiment [1] and under 3.5 µM in experiment [2].

`CCN(CC)CC#Cc1c(F)ccc2c1/C(=C/c1[nH]cnc1C)C(=O)N2` [Compound BBB, (Z)-4-[3-(N,N-Diethylamino)-1-propynyl]-1,3-dihydro-5-fluoro-3-[(4-methyl-1H-imidazol-5-yl)methylene]-2H-indol-2-one]: the IC50 in experiment [1] was under 4 µM; in experiment [2], under 3.5 µM.

Take `CCOC(=O)C(CC#Cc1c(F)ccc2c1/C(=C/c1[nH]cnc1C)C(=O)N2)NC(C)=O` (racemic) [AAA, rac-(Z)-2-(Acetylamino)-5-[5-fluoro-2,3,dihydro-3-[(4-methyl-1H-imidazol-5-yl)methylene]-2-oxo-1H-indol-4-yl]-4-pentynoic acid ethyl ester]: the values for the IC50 in experiment [1] and in experiment [2] were under 4 µM and under 3.5 µM, respectively.

Take `COC(=O)NCC#Cc1c(F)ccc2c1/C(=C/c1[nH]cnc1C)C(=O)N2` [YY, (Z)-[3-[2,3-Dihydro-5-fluoro-3-[(4-methyl-1H-imidazol-5-yl)methylene]-2-oxo-1H-indol-4-yl]-2-propynyl]carbamic acid methyl ester]: the inhibition at 1 µM in experiment [1] (Table IB, concentration ≤1.0 μM) was over 90%. For the same molecule, in experiment [2], the IC50 was under 3.5 µM.

As to `Cc1nc[nH]c1/C=C1\C(=O)Nc2ccc(F)c(C#CCOC(N)=O)c21` [WW, (Z)-Carbamic acid 3-[2,3-dihydro-3-[(4-methyl-1H-imidazol-5-yl)methylene]-5-fluoro-2-oxo-1H-indol-4-yl]-2-propynyl ester], the IC50 in experiment [1] is under 4 µM; in experiment [2] it was under 3.5 µM.

With `Cc1nc[nH]c1/C=C1\C(=O)Nc2ccc(F)c(C#CCO)c21` [QQ, (Z)-1,3-Dihydro-5-fluoro-4-(3-hydroxy-1-propynyl)-3-[(4-methyl-1H-imidazol-5-yl)methylene]-2H-indol-2-one, trifluoroacetate salt], the IC50 in experiment [1] is under 4 µM; in experiment [2], under 3.5 µM.

In the case of `Cc1nc[nH]c1/C=C1\C(=O)Nc2ccc(F)c(C#CC(C)(C)N)c21` [VV, (Z)-4-[3-Amino-3-methyl-1-butynyl]-1,3-dihydro-5-fluoro-3-[(4-methyl-1H-imidazol-5-yl)methylene]-2H-indol-2-one], the figures for the half-inhibitory concentration (IC50) in experiment [1] and in experiment [2] were under 4 µM and under 3.5 µM, respectively.
